Biological target: PfFNT G107S (Plasmodium falciparum, UniProt O77389, G107S)
Experiment: cell-based
Details: for IC50: read-out: IC50 (PfFNT G107S / yeast)

| SMILES | relative efficiency in blocking PfFNT G107S (mutant versus wildtype) (compared with BH-296) | IC50 |
| --- | --- | --- |
| CC(=O)C=C(O)C(F)(F)C(F)(F)F [Pharmacophore, 5,5,6,6,6-pentafluoro-4-hydroxyhex-3-en-2-one] | four times better relative efficiency than BH-296 | 8.1 µM |
| COc1ccc(C(=O)/C=C(\O)C(F)(F)C(F)(F)F)cc1 [BH-296] |  | 2.3 µM |
| COc1ccc2c(c1)OC(O)(C(F)(F)C(F)(F)F)CC2=O (stereo not shown) [MMV007839] |  | 21 µM |

From publication PMC5298233, “Substrate-analogous inhibitors exert antimalarial action by targeting the Plasmodium lactate transporter PfFNT at nanomolar scale” (PLoS Pathogens, 2017)
